Some test systems named below: Pseudomonas aeruginosa; Salmonella typhimurium; Escherichia coli UB1005; Staphylococcus aureus; Escherichia coli 55B5; Shigella dysenteriae; Bacillus pumilus; Bacillus cereus; Micrococcus luteus A270; Escherichia coli SBS 363; Bacillus subtilis; Candida glabrata 090902.
Assay in all cases: ≥ marks a high value that may be exact or a test limit, other limits are often not marked, values filed in µg/mL are converted to µM
In test [1] the test system is Candida albicans ATCC 2002.
Test [2] deals with Acinetobacter calcoaceticus.
The subject of test [3] is Escherichia coli ATCC 25922.
Test [4] has as its system Staphylococcus aureus ATCC 2592.
The subject of test [5] is Staphylococcus aureus ATCC 43300.
The test system of test [6] is Staphylococcus aureus ATCC 6538.
For test [7], the system named is Pseudomonas aeruginosa ATCC 14502.
The subject of test [8] is Micrococcus luteus ATCC 49732.
The test system of test [9] is Staphylococcus aureus ATCC 12600.
In test [10] the test system is Escherichia coli ATCC 11775.
Test [11] concerns Escherichia coli DH5alpha.
Test [12] concerns Bacillus subtilis ATCC 6633.
Test [13] relates to Escherichia coli DSM 1103.
For test [14], the system named is Kocuria rhizophila DSM 348.
For test [15], the system named is Micrococcus luteus DSM 1790.
In test [16] the test system is Staphylococcus aureus DSM 1104.
Test [17] concerns Staphylococcus aureus ATCC 25923.
Test [18] deals with Helicobacter pylori NCTC 11637.
The test system of test [19] is Nocardia asteroides 201118.

MIC data for six molecules are collected here from DBAASP.

One may read the MIC as the lowest concentration found to suppress growth.

In brackets after ≈: the same amount, converted by molar mass. Bounds are passed on as bounds.

For `CC[C@H](C)[C@H](NC(=O)[C@H](C)N)C(=O)N[C@@H](Cc1cnc[nH]1)C(=O)N[C@@H](CCCCN)C(=O)N[C@@H](CC(C)C)C(=O)N[C@@H](C)C(=O)N[C@@H](Cc1cnc[nH]1)C(=O)N[C@@H](CCCCN)C(=O)N[C@@H](CC(C)C)C(=O)N[C@@H](CC(C)C)C(=O)N[C@@H](CCCCN)C(=O)N[C@@H](CCCCN)C(=O)N[C@@H](CC(C)C)C(=O)N[C@@H](CC(C)C)C(=O)N[C@@H](CCCN=C(N)N)C(=O)N[C@@H](C)C(=O)N[C@H](C(=O)N[C@@H](CCCCN)C(=O)N[C@@H](CCCCN)C(=O)N[C@@H](CC(C)C)C(=O)N[C@@H](C)C(=O)N[C@@H](CC(N)=O)C(=O)O)C(C)C` [AIHKLAHKLLKKLLRAVKKLAN], the minimal inhibitory concentration (MIC) was found to be 4.5 µM (≈ 11.3 µg/mL) against Pseudomonas aeruginosa; 6 µM (≈ 15 µg/mL) in the test on Salmonella typhimurium; 3.1 µM (≈ 7.77 µg/mL) with Escherichia coli UB1005; 30 µM (≈ 75.2 µg/mL) against Staphylococcus aureus; 2.5 µM (≈ 6.27 µg/mL) in the test with Escherichia coli 55B5.
Regarding `CC[C@H](C)[C@H](NC(=O)CN)C(=O)N[C@@H](Cc1ccccc1)C(=O)N[C@@H](C)C(=O)N[C@@H](CC(C)C)C(=O)N[C@H](C(=O)N[C@@H](CCCCN)C(=O)N[C@H](C(=O)N[C@@H](C)C(=O)N[C@@H](C)C(=O)N[C@@H](CCCCN)C(=O)N[C@@H](Cc1ccccc1)C(=O)N[C@H](C(=O)NCC(=O)N[C@@H](CCCCN)C(=O)N[C@@H](CC(N)=O)C(=O)N[C@@H](CC(C)C)C(=O)N[C@@H](CC(C)C)C(=O)N[C@@H](CCCCN)C(=O)N[C@@H](CCC(N)=O)C(=O)N[C@@H](C)C(=O)NCC(=O)N[C@@H](CCCCN)C(=O)N[C@@H](C)C(=O)NCC(=O)N[C@@H](CC(C)C)C(=O)N[C@@H](CCC(=O)O)C(=O)N[C@@H](Cc1cnc[nH]1)C(=O)N[C@@H](CC(C)C)C(=O)N[C@@H](C)C(=O)N[C@H]1CSSC[C@@H](C(=O)O)NC(=O)[C@H](CCC(N)=O)NC(=O)[C@H](CC(N)=O)NC(=O)[C@H](CC(N)=O)NC(=O)[C@H](C)NC(=O)[C@H](CCCCN)NC1=O)C(C)C)[C@@H](C)O)[C@@H](C)CC` [GIFALIKTAAKFVGKNLLKQAGKAGLEHLACKANNQC], the minimal inhibitory concentration (MIC) against Pseudomonas aeruginosa was 12.9 µM (≈ 50 µg/mL); in the test with Shigella dysenteriae, 1.94 µM (≈ 7.5 µg/mL); in [1] it was 0.646 µM (≈ 2.5 µg/mL); against Bacillus pumilus it was 0.646 µM (≈ 2.5 µg/mL); in test [2], 6.46 µM (≈ 25 µg/mL); in test [3] it was 3.23 µM (≈ 12.5 µg/mL). Besides, the values for the minimum inhibitory concentration (MIC) (in the test on Bacillus cereus; in test [4]) were 1.94 µM (≈ 7.5 µg/mL) and 0.646 µM (≈ 2.5 µg/mL), respectively.
As for `CC[C@H](C)[C@H](NC(=O)[C@H](C)NC(=O)[C@H](C)NC(=O)[C@H](CCC(=O)O)NC(=O)[C@H](CCCCN)NC(=O)CNC(=O)[C@@H](NC(=O)[C@H](CC(N)=O)NC(=O)[C@H](CCCCN)NC(=O)[C@@H](NC(=O)[C@@H](NC(=O)[C@H](CO)NC(=O)[C@H](Cc1c[nH]c2ccccc12)NC(=O)[C@H](CC(C)C)NC(=O)CN)[C@@H](C)O)[C@@H](C)CC)C(C)C)C(=O)N[C@@H](C)C(=O)N[C@@H](C)C(=O)NCC(=O)N[C@@H](CCCCN)C(=O)N[C@@H](C)C(=O)N[C@@H](C)C(=O)N[C@@H](CC(C)C)C(=O)NCC(=O)N[C@@H](C)C(=O)N[C@@H](CC(C)C)C(N)=O` [GLWSTIKNVGKEAAIAAGKAALGAL], the MIC in [5] turned out to be 26.5 µM (≈ 63.9 µg/mL); in [6], 6 µM (≈ 14.5 µg/mL); against Pseudomonas aeruginosa, 6.6 µM (≈ 15.9 µg/mL); in [7], 6 µM (≈ 14.5 µg/mL); in test [8], 0.8 µM (≈ 1.93 µg/mL); in [9], 0.4 µM (≈ 0.964 µg/mL). Besides, the minimum inhibitory concentration (MIC) against Micrococcus luteus A270 is 6 µM (≈ 14.5 µg/mL); in test [3], 6.6 µM (≈ 15.9 µg/mL); in test [10] it was 0.8 µM (≈ 1.93 µg/mL); in the test on Escherichia coli SBS 363 it was 6 µM (≈ 14.5 µg/mL).
Take `CC[C@H](C)[C@H](NC(=O)[C@H](C)NC(=O)CNC(=O)[C@H](C)NC(=O)[C@H](CCCCN)NC(=O)[C@H](CO)NC(=O)[C@H](C)NC(=O)[C@H](CCSC)NC(=O)CN)C(=O)N[C@@H](C)C(=O)NCC(=O)N[C@@H](CCCCN)C(=O)N[C@H](C(=O)N[C@@H](C)C(=O)N[C@@H](CCCCN)C(=O)N[C@H](C(=O)N[C@@H](C)C(=O)N[C@@H](CC(C)C)C(=O)N[C@@H](CCCCN)C(=O)N[C@@H](C)C(=O)N[C@@H](CC(C)C)C(=O)O)C(C)C)[C@@H](C)CC` [GMASKAGAIAGKIAKVALKAL]: the MIC was at least 65 µM in test [11]; 16.2 µM (≈ 32 µg/mL) in test [12]; at least 65 µM in test [13]; at least 65 µM in test [14]; at least 65 µM in [15]; at least 65 µM in test [16]. Besides, the results for the minimum inhibitory concentration (MIC) in [3] and in test [17] were 0.0305 µM (≈ 0.0601 µg/mL) and 5.08 µM (≈ 10 µg/mL), respectively.
On to `CC[C@H](C)[C@H](NC(=O)[C@H](CCC(N)=O)NC(=O)[C@H](CCCCN)NC(=O)[C@H](Cc1c[nH]c2ccccc12)NC(=O)[C@H](CC(C)C)NC(=O)[C@H](CCC(N)=O)NC(=O)[C@@H]1CCCN1C(=O)[C@H](CC(C)C)NC(=O)[C@H](CCCCN)NC(=O)[C@H](C)NC(=O)[C@H](CCC(=O)O)NC(=O)[C@H](CCCCN)NC(=O)[C@@H](NC(=O)[C@H](CCSC)NC(=O)[C@@H](NC(=O)[C@@H](NC(=O)[C@@H](NC(=O)[C@@H](N)CO)[C@@H](C)CC)[C@@H](C)CC)[C@@H](C)O)[C@@H](C)O)C(=O)N[C@@H](C)C(=O)N[C@H]1CSSC[C@@H](C(=O)O)NC(=O)[C@H]([C@@H](C)O)NC(=O)[C@H](CC(N)=O)NC(=O)[C@H](Cc2ccc(O)cc2)NC(=O)[C@H](CC(C)C)NC(=O)[C@H](CCCN=C(N)N)NC1=O` [SIITMTKEAKLPQLWKQIACRLYNTC], for which the minimum inhibitory concentration (MIC) was at least 39.3 µM against Shigella dysenteriae; 9.82 µM (≈ 30 µg/mL) in [1]; 19.6 µM (≈ 60 µg/mL) in test [3]; 9.82 µM (≈ 30 µg/mL) in test [18]; 4.91 µM (≈ 15 µg/mL) in test [4]; at least 39.3 µM in the test on Bacillus subtilis.
On to `CC[C@H](C)[C@H](NC(=O)[C@H](Cc1ccccc1)NC(=O)CNC(=O)[C@H](CCCCN)NC(=O)CNC(=O)[C@H](C)NC(=O)[C@H](CC(N)=O)NC(=O)[C@H](CCCCN)NC(=O)[C@@H](NC(=O)[C@@H](NC(=O)[C@H](CCC(=O)O)NC(=O)[C@H](Cc1c[nH]c2ccccc12)NC(=O)[C@H](CC(C)C)NC(=O)[C@@H](N)CO)[C@@H](C)O)[C@@H](C)CC)C(=O)N[C@@H](CC(C)C)C(=O)N[C@@H](CC(N)=O)C(=O)N[C@H](C(=O)N[C@@H](CC(C)C)C(=O)N[C@@H](CC(=O)O)C(=O)N[C@@H](CCCCN)C(=O)N[C@H](C(=O)N[C@@H](CCCN=C(N)N)C(=O)N[C@H]1CSSC[C@@H](C(=O)N[C@@H](CCCCN)C(=O)N[C@H](C(=O)O)[C@@H](C)O)NC(=O)CNC(=O)CNC(=O)[C@H](C)NC(=O)[C@H](C(C)C)NC(=O)[C@H](CCCCN)NC1=O)[C@@H](C)CC)[C@@H](C)CC` [SLWETIKNAGKGFILNILDKIRCKVAGGCKT], for which the MIC in the test on Candida glabrata 090902 is at least 150 µM; in test [5] it was 2.78 µM (≈ 9.37 µg/mL); in [1], 4.44 µM (≈ 15 µg/mL); in test [3], 75 µM (≈ 253 µg/mL); in the test on Bacillus subtilis, 2.78 µM (≈ 9.37 µg/mL); in test [19], 4.7 µM (≈ 15.9 µg/mL).
